# Measured values reported in patent US20060223888A1, “Valproic acid analogues and pharmaceutical composition thereof” (priority 2002, published 2006).
# Assays:
# Type in all cases: in vivo
# [1] = test system: PTZ-induced clonic seizures; assay: PTZ85 assay, latency of clonic seizures; details: 1800 micromoles, male cd1/cr mice
# Method: SCMET (PTZ85) Assay. Male CD1/CR mice weighing from 25-35 g are administrated test compounds (range of 5 doses) 15 minutes prior to PTZ. PTZ is administrated subcutaneously, just caudal to the cranium, at a dose of 85 mg/kg. Animals are then caged individually and observed for 15 minutes. The occurrence and latency to clonic and/or tonic convulsions are recorded. The mice are used once. Ten mice are used in each dose group. […] ED50 is determined from a graph of percentage protection vs log(dose) following the known method of Litchfield^18, where percentage protection refers to the percent of animals in each dose group which are protected against seizures. The compounds of interest were tested at an equivalent dose of 1800 micromoles on male cd1/cr mice using the PTZ85 Assay to induce clonic (repetitive seizures). Both the latency (time of seizure onset) and the number of animals protected increased with the size of the ring, or with increased lipophilicity.
# [2] = test system: rotarod test (neurotoxicity); assay: Rotarod neurotoxicity test (TOX), rats, oral
# Method: Anticonvulsant testing was conducted at the antiepileptic screening facility of the National Institute for Neurological Disorders and Stroke in Rockville, Md. Initial tests were done in mice (i.p.) followed by oral and i.p. administration to rats. Neurotoxicity was evaluated with the rotarod test. Maximal electroshock (MES) and subcutaneous methylene tetrazole (SCMET) or pentylene tetrazole (PTZ) were the most common tests performed. Typical procedures are described below.
# Rotorod Test. Acute drug induced neurotoxicity is detected in mice using the standard rotorod test. An untreated mouse, when placed on a 6 rpm rotation rod, can maintain its equilibrium for a prolonged period of time.
# A number of VPA analogues and their sodium salts were tested for their efficacy as anticonvulsants and for their toxicity using the MES Assay and rotarod test. In particular, the following compounds (as shown in the structures below) were tested: 332059U (sodium salt of VPA), 325071 (known compound, tested for comparison), 325073A (metabolite of VPA), 332060U (4,4-difluoro-2-propylpentanoate, fluorinated analogue of VPA), 341031, and 341032U (conjugated (E,Z)-2,3′-diene VPA analogues).
# [3] = test system: Maximal Electroshock (MES) seizures; assay: Maximal electroshock (MES) test, rats, oral, time to peak effect; details: for Anticonvulsant potency compared with VPA (in words): summary of Table 2
# Method: Anticonvulsant testing was conducted at the antiepileptic screening facility of the National Institute for Neurological Disorders and Stroke in Rockville, Md. Initial tests were done in mice (i.p.) followed by oral and i.p. administration to rats. Neurotoxicity was evaluated with the rotarod test. Maximal electroshock (MES) and subcutaneous methylene tetrazole (SCMET) or pentylene tetrazole (PTZ) were the most common tests performed. Typical procedures are described below. MES Assay. Male CD1/CR mice weighing from 25-35 g are administrated test compounds 15 minutes prior to MES. Mice are challenged by pulsed electrical stimulation (50 mA, 0.4 s duration, pulse width 0.5 ms, 60 pulses/sec) via corneal electrodes to induce seizure. Mice are observed post-stimulation for the onset of tonic seizures, and considered to have a tonic seizure only if there is a prolonged extension (>90° from plane of body) of the hind legs. […] Ten mice are used in each group. A number of VPA analogues and their sodium salts were tested for their efficacy as anticonvulsants and for their toxicity using the MES Assay and rotarod test.
# [4] = test system: Subcutaneous Methylene Tetrazole (SCMET) seizures; assay: Subcutaneous methylene tetrazole (SCMET) test, rats, oral, time to peak effect
compound,measurement,setting,value
O=C([O-])/C=C/C=C1CCCCCCC1.[Na+],Latency of Clonic Seizures,[1],855 s
same,Number of Mice Protected Against Clonic Seizures (Out of 10),[1],9
O=C([O-])/C=C/C=C1CCCCCC1.[Na+],Latency of Clonic Seizures,[1],778 s
same,Number of Mice Protected Against Clonic Seizures (Out of 10),[1],7
O=C([O-])/C=C/C=C1CCCCC1.[Na+],Latency of Clonic Seizures,[1],661 s
same,Number of Mice Protected Against Clonic Seizures (Out of 10),[1],4
O=C([O-])/C=C/C=C1CCCC1.[Na+],Latency of Clonic Seizures,[1],589 s
same,Number of Mice Protected Against Clonic Seizures (Out of 10),[1],2
"C/C=C\C(=C/C)C(=O)[O-].[Na+] [325071A, Sodium (2E,3Z)-2-ethylidenpent-3-enoate]",TOX: N/F = number of animals that failed the rotarod test to numbers tested,"[2]; 200 mg/kg, 0.25 h",0/8
same,TOX: N/F = number of animals that failed the rotarod test to numbers tested,"[2]; 200 mg/kg, 0.5 h",0/8
same,TOX: N/F = number of animals that failed the rotarod test to numbers tested,"[2]; 200 mg/kg, 1.0 h",0/8
same,TOX: N/F = number of animals that failed the rotarod test to numbers tested,"[2]; 200 mg/kg, 2.0 h",0/8
same,TOX: N/F = number of animals that failed the rotarod test to numbers tested,"[2]; 200 mg/kg, 4.0 h",0/4
same,MES N/F = number of animals protected relative to number tested,"[3]; 80 mg/kg, 0.25 h",0/4
same,MES N/F = number of animals protected relative to number tested,"[3]; 80 mg/kg, 0.5 h",0/4
same,MES N/F = number of animals protected relative to number tested,"[3]; 80 mg/kg, 1.0 h",0/4
same,MES N/F = number of animals protected relative to number tested,"[3]; 80 mg/kg, 2.0 h",0/4
same,MES N/F = number of animals protected relative to number tested,"[3]; 80 mg/kg, 4.0 h",0/4
same,MES N/F = number of animals protected relative to number tested,"[3]; 200 mg/kg, 0.25 h",0/4
same,MES N/F = number of animals protected relative to number tested,"[3]; 200 mg/kg, 0.5 h",1/4
same,MES N/F = number of animals protected relative to number tested,"[3]; 200 mg/kg, 1.0 h",0/4
same,MES N/F = number of animals protected relative to number tested,"[3]; 200 mg/kg, 2.0 h",1/4
same,MES N/F = number of animals protected relative to number tested,"[3]; 200 mg/kg, 4.0 h",0/4
same,SCMET N/F = number of animals protected relative to number tested,"[4]; 80 mg/kg, 0.25 h",0/4
same,SCMET N/F = number of animals protected relative to number tested,"[4]; 80 mg/kg, 0.5 h",0/4
same,SCMET N/F = number of animals protected relative to number tested,"[4]; 80 mg/kg, 1.0 h",1/4
same,SCMET N/F = number of animals protected relative to number tested,"[4]; 80 mg/kg, 2.0 h",0/4
same,SCMET N/F = number of animals protected relative to number tested,"[4]; 80 mg/kg, 4.0 h",0/4
same,SCMET N/F = number of animals protected relative to number tested,"[4]; 200 mg/kg, 0.25 h",2/4
same,SCMET N/F = number of animals protected relative to number tested,"[4]; 200 mg/kg, 0.5 h",0/4
same,SCMET N/F = number of animals protected relative to number tested,"[4]; 200 mg/kg, 1.0 h",0/4
same,SCMET N/F = number of animals protected relative to number tested,"[4]; 200 mg/kg, 2.0 h",1/4
same,SCMET N/F = number of animals protected relative to number tested,"[4]; 200 mg/kg, 4.0 h",1/4
"CCCC(CC(C)(F)F)C(=O)[O-].[Na+] (centres unmarked) [332060U, Sodium 4,4-difluoro-2-propylpentanoate]",TOX: N/F = number of animals that failed the rotarod test to numbers tested,"[2]; 100 mg/kg, 0.25 h",0/4
same,TOX: N/F = number of animals that failed the rotarod test to numbers tested,"[2]; 100 mg/kg, 0.5 h",0/4
same,TOX: N/F = number of animals that failed the rotarod test to numbers tested,"[2]; 100 mg/kg, 1.0 h",0/4
same,TOX: N/F = number of animals that failed the rotarod test to numbers tested,"[2]; 100 mg/kg, 2.0 h",0/4
same,TOX: N/F = number of animals that failed the rotarod test to numbers tested,"[2]; 100 mg/kg, 4.0 h",0/4
same,TOX: N/F = number of animals that failed the rotarod test to numbers tested,"[2]; 200 mg/kg, 0.25 h",0/4
same,TOX: N/F = number of animals that failed the rotarod test to numbers tested,"[2]; 200 mg/kg, 0.5 h",0/4
same,TOX: N/F = number of animals that failed the rotarod test to numbers tested,"[2]; 360 mg/kg, 0.25 h",0/4
same,TOX: N/F = number of animals that failed the rotarod test to numbers tested,"[2]; 360 mg/kg, 0.5 h",0/4
same,TOX: N/F = number of animals that failed the rotarod test to numbers tested,"[2]; 360 mg/kg, 1.0 h",0/4
same,TOX: N/F = number of animals that failed the rotarod test to numbers tested,"[2]; 360 mg/kg, 2.0 h",0/4
same,TOX: N/F = number of animals that failed the rotarod test to numbers tested,"[2]; 360 mg/kg, 4.0 h",0/4
same,SCMET N/F = number of animals protected relative to number tested,"[4]; 100 mg/kg, 0.25 h",1/4
same,SCMET N/F = number of animals protected relative to number tested,"[4]; 100 mg/kg, 0.5 h",1/4
same,SCMET N/F = number of animals protected relative to number tested,"[4]; 100 mg/kg, 1.0 h",0/4
same,SCMET N/F = number of animals protected relative to number tested,"[4]; 100 mg/kg, 2.0 h",0/4
same,SCMET N/F = number of animals protected relative to number tested,"[4]; 100 mg/kg, 4.0 h",0/4
same,SCMET N/F = number of animals protected relative to number tested,"[4]; 200 mg/kg, 0.25 h",1/4
same,SCMET N/F = number of animals protected relative to number tested,"[4]; 200 mg/kg, 0.5 h",1/4
same,SCMET N/F = number of animals protected relative to number tested,"[4]; 360 mg/kg, 0.25 h",3/4
same,SCMET N/F = number of animals protected relative to number tested,"[4]; 360 mg/kg, 0.5 h",0/4
same,SCMET N/F = number of animals protected relative to number tested,"[4]; 360 mg/kg, 1.0 h",2/4
same,SCMET N/F = number of animals protected relative to number tested,"[4]; 360 mg/kg, 2.0 h",1/4
same,SCMET N/F = number of animals protected relative to number tested,"[4]; 360 mg/kg, 4.0 h",0/4
same,Anticonvulsant efficacy in relation to neurotoxicity (in words),[4]; summary of Table 2,effective at doses that do not demonstrate neurotoxicity
"C/C=C\C(=C/C(C)C)C(=O)[O-].[Na+] [341031U, Sodium (2E)-4-methyl-2-[(1Z)-prop-1-en-1-yl]pent-2-enoate]",TOX: N/F = number of animals that failed the rotarod test to numbers tested,"[2]; 200 mg/kg, 0.25 h",0/4
same,TOX: N/F = number of animals that failed the rotarod test to numbers tested,"[2]; 200 mg/kg, 0.5 h",0/4
same,TOX: N/F = number of animals that failed the rotarod test to numbers tested,"[2]; 200 mg/kg, 1.0 h",0/4
same,TOX: N/F = number of animals that failed the rotarod test to numbers tested,"[2]; 200 mg/kg, 2.0 h",0/4
same,TOX: N/F = number of animals that failed the rotarod test to numbers tested,"[2]; 200 mg/kg, 4.0 h",0/4
same,MES N/F = number of animals protected relative to number tested,"[3]; 200 mg/kg, 0.25 h",3/4
same,MES N/F = number of animals protected relative to number tested,"[3]; 200 mg/kg, 0.5 h",2/4
same,MES N/F = number of animals protected relative to number tested,"[3]; 200 mg/kg, 1.0 h",0/4
same,MES N/F = number of animals protected relative to number tested,"[3]; 200 mg/kg, 2.0 h",0/4
same,MES N/F = number of animals protected relative to number tested,"[3]; 200 mg/kg, 4.0 h",0/4
same,Anticonvulsant potency compared with VPA (in words),[3],more potent than VPA
"CC/C=C(\C=C(C)C)C(=O)[O-].[Na+] [341032U, Sodium (2E)-2-(2-methylprop-1-en-1-yl)pent-2-enoate]",TOX: N/F = number of animals that failed the rotarod test to numbers tested,"[2]; 200 mg/kg, 0.25 h",3/4
same,TOX: N/F = number of animals that failed the rotarod test to numbers tested,"[2]; 200 mg/kg, 0.5 h",4/4
same,TOX: N/F = number of animals that failed the rotarod test to numbers tested,"[2]; 200 mg/kg, 1.0 h",1/4
same,TOX: N/F = number of animals that failed the rotarod test to numbers tested,"[2]; 200 mg/kg, 2.0 h",0/4
same,TOX: N/F = number of animals that failed the rotarod test to numbers tested,"[2]; 200 mg/kg, 4.0 h",0/4
same,MES N/F = number of animals protected relative to number tested,"[3]; 200 mg/kg, 0.25 h",4/4
same,MES N/F = number of animals protected relative to number tested,"[3]; 200 mg/kg, 0.5 h",3/4
same,MES N/F = number of animals protected relative to number tested,"[3]; 200 mg/kg, 1.0 h",1/4
same,MES N/F = number of animals protected relative to number tested,"[3]; 200 mg/kg, 2.0 h",0/4
same,MES N/F = number of animals protected relative to number tested,"[3]; 200 mg/kg, 4.0 h",0/4
same,Anticonvulsant potency compared with VPA (in words),[3],more potent than VPA
